Results reported in patent publication US12503455B2, “Nucleic acid-binding photoprobes and uses thereof” (Arrakis Therapeutics, Inc., priority 2017, dated 2025).
Each block holds one compound with its values, some of them ahead of it.

Experiments:
Aptamer 21 [1] = test: Surface plasmon resonance (SPR) binding to Aptamer 21; settings: for binding to Aptamer 21 by SPR, separated enantiomers: 10 uM
Text: Surface plasmon resonance (SPR) may be used to screen ligands and hook and click constructs for binding to a target RNA of interest. SPR is especially useful for monitoring biomolecular interactions in real time. Typically, target species and unrelated control are immobilized to a sensor chip, then analytes (compounds/fragments) are flowed over the surface. Binding of the compound to target species results in increase of SPR signal (association phase). Washing away bound compound with buffer results in a decrease of SPR signal (dissociation phase). Fitting of sensorgrams recorded at different compound concentrations is performed to an appropriate interaction model. The method allows extraction of kinetic parameters (ka, kd→KD). Requirements/limitations include that the ka/kd values be in reasonable ranges; and the target size must not be too large (<100 kDa). It is an excellent method to screen fragments and profile or validate hits. BC4000 may be used for primary screening (up to 4,000 data pts/week). Biacore T200 is suitable for hit profiling and validation.
In the PEARL-seq context, SPR allows monitoring binding of “hooks” to DNA/RNA aptamers. The target species is immobilized to sensor chip, analytes (i.e. hooks) are flowed over surface (association phase), DNA/RNA aptamer is flowed over surface (plateau phase), competitor compound is washed over surface (dissociation phase), thus yielding binding data.
Experiments were performed on a MASS-2 (Sierra Sensors) at 25° C. A high capacity amine chip was equilibrated with PBS. The chip was conditioned with alternating injections of 10 mM HCl and 10 mM NaOH in 1 M NaCl. The carboxymethylated dextran of the surface of the amine chip was activated for 7 minutes at a flow rate of 10 μL/min using a 1:1 volume ratio of 0.4 M 1-ethyl-3-(3-dimethylaminopropyl) carbodiimide (Sierra) and 0.1 M N-hydroxysuccinimide (Sierra). Neutravidin (70 μg/mL, Thermofisher) was injected over the activated surface for 10 minutes at a flow rate of 10 μl/min. Excess activated groups were blocked by an injection of 1 M ethanolamine, pH 8.5 (Sierra) for 7 minutes at a flow rate of 10 μl/min. A final injection of 10 mM NaOH in 1 M NaCl for 7 minutes at 10 μl/min was used to remove any unbound material to the chip. The immobilization reaction typically yielded approximately 12,000 resonance units (RU) of neutravidin. At least one spot in a channel was not injected with RNA and was used as a background control. Unrelated RNA was also used as a background control.
A 1 μM sample of biotin-aptamer 21 was prepared in RNAse free water, heated to 95° C. for 3 minutes, cooled on ice for 4 minutes, diluted with an equal volume 2× folding buffer (40 mM Tris-HCl, pH 8.0, 6 mM MgCl2, 200 mM KCl), and incubated at 37° C. for 30 minutes. The final concentration of RNA was 0.5 μM.
The MASS-2 was primed 2 times with 20 mM Tris-HCl, pH 8.0, 3 mM MgCl2, 100 mM KCl (Capture Buffer). RNA was injected over the neutravidin surface for 7 minutes at a flow rate of 10 μl/min. Capture levels typically reached approximately 3500-4500 of resonance units of aptamer 21.
Compounds were diluted 2-fold in 100% DMSO at a starting concentration of 500 μM.
The MASS-2 was primed 2 times with 20 mM Tris-HCl, pH 8.0, 3 mM MgCl2, 100 mM KCl, 1% DMSO (running buffer). Prior to testing compounds 3 injections of running buffer were used to equilibrate the sensor surface. […]

Aptamer 21 [2] = test: LC-MS analysis of cross-linked RNA; type: binding
Description: (§1) Folded RNA (1.33 μM) was incubated with or without the photoaffinity probe (20 μM) in total 100 μL of buffer (20 mM TrisHCl pH 8, 100 mM KCl, 3 mM MgCl2) with 2% DMSO for 30 min at 37° C. to allow binding to come to equilibrium. The sample was then irradiated with long wave UV light (˜365 nm) for 30 min in a UV crosslinker (Fisher Scientific).
The RNA was then precipitated by adding 10 μL of 3 M sodium acetate pH 5 and 275 μL ethanol, cooling to −80° C. for 1 h, and then centrifuging at 20,500×g at 4° C. for 30 min. The RNA pellet was washed with 500 μL of 70% ethanol, air dried for 5 min, and then resuspended in 120 μL of water.
50 μL of RNA sample was injected onto Clarity 2.6 μm Oligo X-T column (50*2.1 mm, 60° C.), and the gradient and flowrate were as follows: 95% A/5% B to 75% A/25% B over 5 min, flowrate: 400 μL/min; 75% A/25% B to 30% A/70% B over 1 min, flowrate: 400 μL/min; 100% D over 1 min, flowrate: 500 μL/min; 95% A/5% B over 2 min, flowrate: 500 μL/min (A: 1% HFIPA (hexafluoroisopropyl alcohol), 0.1% DIEA (diisopropylethylamine), 1 μM EDTA (ethylenediamine tetraacetic acid) in H2O; B: 0.075% HFIPA, 0.0375% DIEA, 1 μM EDTA in 65/35 MeCN/H2O; D: 40/40/20% MeOH/MeCN/H2O); The LCMS instrument was a Thermo Finnigan LTQ, and ProMass deconvolution software coupled with Xcaliber were used for all data processing.

Aptamer 21 [3] = test: Reverse transcriptase pausing (drop-off) gel assay of photo-crosslinking to Aptamer 21; type: binding; settings: FIG. 52
Description: A solution of RNA at 2 to 5 μM in nuclease-free water was heated to 95° C. for 3 min and then cooled on ice for 2 min. This solution was diluted with ½ volume of 3×RNA folding buffer (60 mM TrisHCl pH 8, 300 mM KCl, 9 mM MgCl2) and incubated at 37° C. for 20 min. Folding was carried out immediately before use of the RNA in each experiment. In cases where a mixture of RNA molecules was used in vitro the RNAs were folded separately and then combined prior to the probing experiment.
as §1, with “RNA (1” for “RNA (1.33”, “with” for “with or without”, “probe (10” for “probe (20”, “total 25” for “total 100”, “with 2.5%” for “with 2%”
(§2) A 3.75 μL aliquot of 10 μM reverse transcription primer was added to the cross-linked RNA sample, which was then incubated for 5 min at 65° C. and then cooled on ice. The sample was then diluted to a final volume of 60 μL and final buffer concentration of 1× Protoscript-II buffer (New England Biolabs), 0.5 mM dNTPs, 10 mM DTT, 0.4 U/μL RNase Inhibitor (New England Biolabs), and 10 U/μL Protoscript-II (New England Biolabs). The reaction was incubated at 45° C. for 2 h, 65° C. for 20 min, and then 4° C.
(§3) The RNA was hydrolyzed by the addition of 4.8 μL of 2.5 M NaOH and heating at 95° C. for 5 min. The reaction was quenched by the addition of 0.9 μL of acetic acid. The cDNA was precipitated by the addition of 6.6 μL of 3 M sodium acetate pH 5 and 181 μL ethanol, cooling to −80° C. for 1 h, and then centrifuging at 20,500×g at 4° C. for 30 min. The cDNA pellet was washed twice with 500 μL of 70% ethanol and then air dried for 5 min.
(§4) The cDNA pellet was resuspended in 12 μL of 1×TBE-urea sample loading buffer (Bio-Rad) and heated to 95° C. for 5 min. The sample was then run on a pre-cast 8.6×6.7 cm TBE-urea 10% PAGE gel (Bio-Rad) at 120 V until the lower bromophenol blue dye reached the bottom of the gel. The gel was stained with 1×SYBR-gold (Invitrogen) in 1×TBE buffer at room temperature for 20 min covered from light. The gel fluorescence was imaged on an Azure c600 instrument.

Aptamer 21 [4] = test: Competition between Aptamer 21 photoprobes and RNA-binding ligands (RT pausing)
Description: Aptamer 21 was either incubated with probe alone (ARK-581) or probe plus a 10-fold excess of RNA-binding ligand.
Both ARK-852 and ARK-139 inhibit the photocrosslinking of probes to Aptamer 21.
as §1, with “RNA (1” for “RNA (1.33”, “with” for “with or without”, “probe (10” for “probe (20”, “total 25” for “total 100”, “with 2.5%” for “with 2%”
as §2, §3, §4

Structure (SMILES): COC(=O)C1=C(COCc2cn(CCOCCOCCNC(=O)c3ccc(N=[N+]=[N-])cc3)nn2)NC(c2ccncc2)=NC1c1ccc(F)cc1Cl (stereo not shown) [ARK-581]
covalent modification of the RNA by LC-MS (Aptamer 21 [2]): 10%

Structure (SMILES): Cc1ncccc1C(=O)n1ccnc1 [NAI, 2-methylnicotinic acid imidazolide, reference compound]
shortened sequences produced in PEARL-seq reverse transcriptase pausing gel assay (Aptamer 21 [3]): numerous shortened sequences

The remaining lines, values ahead:

binding to Aptamer 21 by SPR, separated enantiomers (Aptamer 21 [1]): did not bind
Structure (SMILES): COC(=O)C1=C(COCc2cn(CCOCCOCCO)nn2)NC(c2ccncc2)=N[C@@H]1c1ccc(F)cc1Cl [ARK-702, (S)-methyl 4-(2-chloro-4-fluorophenyl)-6-(((1-(2-(2-(2-hydroxyethoxy)ethoxy)ethyl)-1H-1,2,3-triazol-4-yl)methoxy)methyl)-2-(pyridin-4-yl)-1,4-dihydropyrimidine-5-carboxylate]

binding to Aptamer 21 by SPR, separated enantiomers (Aptamer 21 [1]): did bind
Structure (SMILES): COC(=O)C1=C(COCc2cn(CCOCCOCCO)nn2)NC(c2ccncc2)=N[C@H]1c1ccc(F)cc1Cl [ARK-701, (R)-methyl 4-(2-chloro-4-fluorophenyl)-6-(((1-(2-(2-(2-hydroxyethoxy)ethoxy)ethyl)-1H-1,2,3-triazol-4-yl)methoxy)methyl)-2-(pyridin-4-yl)-1,4-dihydropyrimidine-5-carboxylate]

binding to Aptamer 21 by SPR (Aptamer 21 [1]): SPR-active
inhibition of photocrosslinking of ARK-581 to Aptamer 21 (Aptamer 21 [4]; 10-fold excess of RNA-binding ligand over probe): efficiently inhibited
inhibition of photocrosslinking of probes to Aptamer 21 (RT pausing competition assay) (Aptamer 21 [4]; FIG. 65): inhibit
Structure (SMILES): Cc1ccc(C(=O)N2Cc3ccccc3C[C@H]2C(N)=O)cc1NCc1c(F)ccc(O)c1F [ARK-852]
